For experiment [1], the target named is T1, ACE2-B^0AT1 complex (Homo sapiens, UniProt Q695T7).
T1 construct: gene SLC6A19; purified complex for cryo-EM; with Angiotensin-converting enzyme 2
As to the kind of experiment: cryo-EM structure of the complex, […] A. The experiment is classed as binding. Conditions: central substrate site between TM1 and TM6.

The target of experiment [2] is T1, ACE2-B^0AT1 complex. As to the kind of experiment: cryo-EM structure of the complex, […] A. Conditions: central substrate site between TM1 and TM6. The experiment is classed as binding. This is another data set of the same source.
The target of experiment [3] is T2, ACE2-SIT1 complex (Homo sapiens, UniProt Q9NP91, Q247A).
T2 construct: gene SLC6A20; co-expressed in HEK293T cells for currents; purified complex for cryo-EM (two protomers, each ACE2 plus SIT1); with Angiotensin-converting enzyme 2
As to the kind of experiment: Pro-induced transport current in HEK293T cells co-expressing SIT1 and ACE2. The experiment is classed as cell-based.

Experiment [4] has as its target T3, ACE2-SIT1 complex (Homo sapiens, UniProt Q9NP91).
T3 construct: gene SLC6A20; co-expressed in HEK293T cells for currents; purified complex for cryo-EM (two protomers, each ACE2 plus SIT1); with Angiotensin-converting enzyme 2
The experiment is described as above. Type of experiment: cell-based.

T1 sequence (Q695T7 whole entry): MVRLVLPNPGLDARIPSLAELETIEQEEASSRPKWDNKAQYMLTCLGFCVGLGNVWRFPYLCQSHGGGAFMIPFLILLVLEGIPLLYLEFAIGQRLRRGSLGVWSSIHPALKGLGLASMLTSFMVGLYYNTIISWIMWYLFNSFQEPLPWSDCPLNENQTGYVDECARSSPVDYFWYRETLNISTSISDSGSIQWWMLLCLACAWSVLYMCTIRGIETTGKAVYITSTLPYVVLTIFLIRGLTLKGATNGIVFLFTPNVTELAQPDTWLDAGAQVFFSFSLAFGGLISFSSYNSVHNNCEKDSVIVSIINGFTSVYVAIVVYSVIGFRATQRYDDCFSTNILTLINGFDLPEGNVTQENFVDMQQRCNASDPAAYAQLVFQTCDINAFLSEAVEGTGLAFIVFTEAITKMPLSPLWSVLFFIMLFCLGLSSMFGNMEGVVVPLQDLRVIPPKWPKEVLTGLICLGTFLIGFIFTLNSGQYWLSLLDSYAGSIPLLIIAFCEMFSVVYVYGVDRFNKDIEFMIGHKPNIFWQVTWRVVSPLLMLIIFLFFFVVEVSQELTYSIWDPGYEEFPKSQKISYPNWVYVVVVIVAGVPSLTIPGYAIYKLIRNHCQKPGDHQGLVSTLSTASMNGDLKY
T1 sequence (Q9BYF1 18-805 partner): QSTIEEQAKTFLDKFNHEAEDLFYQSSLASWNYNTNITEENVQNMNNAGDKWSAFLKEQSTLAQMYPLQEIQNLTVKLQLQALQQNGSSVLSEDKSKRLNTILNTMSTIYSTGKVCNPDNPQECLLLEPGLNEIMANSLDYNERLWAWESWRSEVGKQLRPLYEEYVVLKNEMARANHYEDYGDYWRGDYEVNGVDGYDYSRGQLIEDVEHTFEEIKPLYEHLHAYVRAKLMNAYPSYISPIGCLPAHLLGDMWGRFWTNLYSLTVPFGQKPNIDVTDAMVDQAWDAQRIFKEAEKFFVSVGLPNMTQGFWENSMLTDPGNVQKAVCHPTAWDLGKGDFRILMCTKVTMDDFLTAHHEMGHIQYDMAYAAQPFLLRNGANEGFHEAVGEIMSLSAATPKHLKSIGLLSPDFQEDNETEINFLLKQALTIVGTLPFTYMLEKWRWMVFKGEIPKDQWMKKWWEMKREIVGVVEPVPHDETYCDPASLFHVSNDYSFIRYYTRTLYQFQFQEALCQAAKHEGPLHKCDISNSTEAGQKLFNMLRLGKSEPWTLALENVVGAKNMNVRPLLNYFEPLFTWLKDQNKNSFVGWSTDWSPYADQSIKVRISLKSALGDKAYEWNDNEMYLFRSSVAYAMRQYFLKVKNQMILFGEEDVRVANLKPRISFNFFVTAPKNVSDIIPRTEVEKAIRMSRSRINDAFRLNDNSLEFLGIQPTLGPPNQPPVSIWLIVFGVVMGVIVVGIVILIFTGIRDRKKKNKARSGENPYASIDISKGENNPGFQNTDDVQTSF
T3 sequence (Q9NP91 whole entry): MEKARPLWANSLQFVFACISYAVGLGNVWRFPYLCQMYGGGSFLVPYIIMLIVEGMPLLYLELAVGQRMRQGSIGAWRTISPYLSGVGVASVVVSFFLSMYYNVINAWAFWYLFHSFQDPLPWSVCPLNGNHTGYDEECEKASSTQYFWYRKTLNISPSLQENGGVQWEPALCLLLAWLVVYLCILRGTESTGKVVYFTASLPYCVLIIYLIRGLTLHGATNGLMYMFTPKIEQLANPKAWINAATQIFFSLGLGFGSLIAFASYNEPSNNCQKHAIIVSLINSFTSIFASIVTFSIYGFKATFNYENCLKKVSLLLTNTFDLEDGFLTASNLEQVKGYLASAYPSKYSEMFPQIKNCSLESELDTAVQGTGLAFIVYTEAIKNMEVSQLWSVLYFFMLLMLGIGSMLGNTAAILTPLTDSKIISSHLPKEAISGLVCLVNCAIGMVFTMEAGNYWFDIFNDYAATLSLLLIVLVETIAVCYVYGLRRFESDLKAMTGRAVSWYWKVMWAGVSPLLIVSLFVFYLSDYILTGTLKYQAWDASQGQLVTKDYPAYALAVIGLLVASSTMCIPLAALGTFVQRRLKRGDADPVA
T3 sequence (Q9BYF1 18-805 partner): as the sequence (Q9BYF1 18-805 partner) above
T2 sequence (Q9NP91 whole entry Q247A): as the sequence (Q9NP91 whole entry) above, with Q247A counted along it
T2 sequence (Q9BYF1 18-805 partner): as the sequence (Q9BYF1 18-805 partner) above

With `NC(=O)CC[C@H](N)C(=O)O` [Gln], the “cryo-EM structure of the complex, 3.2 A” value in experiment [1] is “ACE2-B^0AT1 complex bound to its native substrates Gln and Met are determined”.

With `CSCC[C@H](N)C(=O)O` [Met], the “cryo-EM structure of the complex, 3.1 A” value in experiment [2] was “ACE2-B^0AT1 complex bound to its native substrates Gln and Met are determined”.

What is called EC50 is the concentration that produces a half-maximal response. In the case of `O=C(O)[C@@H]1CCCN1` [Pro], the 50% effective concentration (EC50) was about 70 µM in experiment [3] and about 2510 µM in experiment [4].

For the origin of these results see article PMC10491607, “Structural insight into the substrate recognition and transport mechanism of amino acid transporter complex ACE2-B^0AT1 and ACE2-SIT1” (Cell Discovery, 2023).
